Experiments:
[1] = system: MRSA USA300-0114 toxins hla and PVL; assay: MRSA toxin production by ELISA; format: cell-based, S. aureus; conditions: 1 hour incubation
[2] = system: intracellular MRSA USA300 in J774A.1 cells; assay: Activity against intracellular MRSA in J774A.1 cells; format: cell-based; conditions: compared to vancomycin and linezolid
[3] = system: MRSA USA300; assay: Non-lethal MRSA infection mice model; format: in vivo; conditions: two doses oral 0.25 mg/kg
Excerpt: (§1) For MRSA systemic infection, neutropenic Female BALB/c mice were inoculated IP with 1×10^9 MRSA USA300.

[4] = system: A. baumannii; assay: MIC against G-ve with and without colistin: A. baumannii; format: cell-based
[5] = system: MRSA (23) clinical isolates; assay: MIC against Gram +ve clinical isolates: MRSA; format: cell-based, S. aureus; conditions: for MIC50: MRSA (23)
[6] = system: MRSA USA300; assay: Mouse model of MRSA systemic infection (lethal); format: in vivo, BALB/c mice; conditions: three doses
Excerpt: as §1

[7] = system: rabbit reticulocyte lysate system (mammalian protein synthesis); assay: Mammalian protein synthesis in rabbit reticulocyte lysate system; format: biochemical
Excerpt: (IC50) of Auranofin in rabbit reticulocyte extract. […] The results are given as means±SD (data without error bars indicate that the SD is too small to be seen).
(§2) In this Example, we tested the effects of the two drugs on bacterial, mammalian and mitochondrial protein-synthesis. For bacterial protein-synthesis inhibition, we used E. coli cellular extracts in a transcription and translation assay that monitors protein production via luciferase readout.

[8] = system: Colistin resistant clinical isolates of P. aeruginosa; assay: MIC against G-ve with and without colistin: colistin resistant P. aeruginosa; format: cell-based; conditions: without colistin
[9] = system: S. aureus biofilm; assay: Reduction of adherent S. aureus biofilm; format: cell-based; conditions: compared to linezolid, mupirocin, vancomycin, rifampicin
Excerpt: (§3) Biofilms are a major contributing factor to lack of healing of chronic wounds, as the matrix-embedded bacteria are recalcitrant to antibiotics and host immune response, rendering them extremely challenging and costly to treat.

[10] = system: E.. coli O157:H7; assay: MIC against G-ve with and without colistin: E. coli O157:H7; format: cell-based
[11] = system: S. epidermidis biofilm; assay: Reduction of adherent S. epidermidis biofilm; format: cell-based; conditions: compared to linezolid, mupirocin, vancomycin, rifampicin
Excerpt: as §3

[12] = system: S. aureus; assay: Macromolecular synthesis (MMS): incorporation of radioactive precursors; format: cell-based
Excerpt: In this Example we examined the effect of Auranofin and Ebselen on incorporation of radioactive precursors into macromolecules in S. aureus.

[13] = in vivo; cited from earlier work
[14] = system: pro-inflammatory cytokines (TNF-α, IL-6, IL-1β, MCP-1); assay: Cytokines production in MRSA skin infection in mice; format: in vivo; conditions: topical application
Excerpt: Each points represents single mice and each group has 5 mice. P values of (*P≤0.05) (**P≤0.01) are considered as significant. We investigated the immunomodulatory activity of Auranofin and ebselen in a topical application against MRSA skin infection in mice.
In this Example, we investigated the immunomodulatory activity of Auranofin and Ebselen in a topical application against MRSA skin infection in mice. […] These cytokines are thought to play a greater role in the severity of S. aureus skin infections more than the size of the bacterial burden and can lead to an infection persisting for a longer time period. Therefore, the ability of Auranofin and Ebselen reduces the production of these cytokines in the infected mice, indicating the clinical relevance of these drugs if used for antimicrobial treatment.

[15] = system: MRSA USA300 persister cells tolerant to ciprofloxacin; assay: Killing of S. aureus persister cells; format: cell-based; conditions: added after ciprofloxacin treatment; 48 h
[16] = system: VISA and VRSA (14) clinical isolates; assay: MIC against Gram +ve clinical isolates: VISA and VRSA; format: cell-based, S. aureus
[17] = system: E. coli cellular extracts (bacterial translation process); assay: Bacterial transcription and translation assay, luciferase readout; format: biochemical
Excerpt: For bacterial protein-synthesis inhibition, E. coli cellular extracts in a transcription and translation assay were used to monitor protein production via luciferase readout.
as §2

[18] = system: VRE (14) clinical isolates; assay: MIC against Gram +ve clinical isolates: VRE; format: cell-based, enterococcus
[19] = system: S. Typhimurium; assay: MIC against G-ve with and without colistin: S. Typhimurium; format: cell-based; conditions: without colistin
[20] = system: MRSA USA300; assay: Mouse-model of staphylococcal skin infection: bacterial load; format: in vivo, BALB/c mice; conditions: topical 20 mg of 2% in petroleum jelly, twice a day for 5 days
Method: Auranofin and ebselen were evaluated in a mouse-model of staphylococcal skin infection. Seven groups of BALB/c mice (n=5) were inoculated with MRSA USA300 (4.3×10^9 CFU/ml) intradermally. 48 hours after infection and formation of open wound, four groups were treated topically with 20 mg of 2% Ebselen, 2% Auranofin, 2% mupirocin or 2% […] in petroleum jelly (ointment—skin protectant). Two groups were treated orally with either linezolid or clindamycin (25 mg/kg). The last group received the vehicles alone (petroleum jelly). All groups were treated twice a day for 5 days.
Since the clinical severity of bacterial skin infections is driven by the excess host pro-inflammatory cytokines rather than by bacterial burden, the recognized anti-inflammatory response of Auranofin and Ebselen combined with the potent antimicrobial, killing intracellular MRSA, and antibiofilm activities, should provide great advantage in the treatment of bacterial skin infection and wound healing. In this Example, we evaluated Auranofin and Ebselen in a mouse-model of staphylococcal skin infection. Seven groups of BALB/c mice (n=5) were inoculated with MRSA USA300 (4.3×10^9 CFU/ml) intradermally. 48 hours after infection and formation of open wound, four groups were treated topically with 20 mg of 2% ebselen, 2% auranofin, 2% mupirocin or 2% […] in petroleum jelly (ointment—skin protectant). […]

[21] = system: multiple MRSA and VRSA strains; assay: Synergy with conventional antimicrobials in vitro; format: cell-based, S. aureus; conditions: most tested conventional antimicrobials, all tested strains (few exceptions such as VRSA5)
[22] = system: P. aeruginosa; assay: MIC against G-ve with and without colistin: P. aeruginosa; format: cell-based
[23] = system: K. pneumonia; assay: MIC against G-ve with and without colistin: K. pneumonia; format: cell-based
[24] = concentrations significantly below the MIC

Structure (SMILES): CC(=O)OC[C@H]1O[C@@H]([S-])[C@H](OC(C)=O)[C@@H](OC(C)=O)[C@@H]1OC(C)=O.CCP(CC)CC.[Au+] [Auranofin]
- production of toxin PVL [1]: significantly suppressed toxin production
- production of toxin hla [1]: significantly suppressed toxin production
- reduction of intracellular MRSA [2]: superior in reducing intracellular MRSA
- bacterial load in the liver and spleen [3]: significantly reduced the bacterial load
- MIC, colistin (+) ([4]; with sub-inhibitory colistin 0.0625 μg/ml): 0.25 µg/mL
- MIC, colistin (−) ([4]; without colistin): 16 µg/mL
- MIC50 ([5]; first column per drug): 0.062 µg/mL
- MIC50 ([5]; second column per drug): 0.125 µg/mL
- MIC90 (MICs at which 90% of MRSA isolates were inhibited) ([5]; MRSA isolates): 0.125 µg/mL
- mice survival ([6]; oral 0.125 mg/kg once daily): 40%
- mice survival ([6]; oral 0.25 mg/kg once daily): 80%
- inhibition of translation in mammalian protein synthesis [7]: did not inhibit translation
- MIC, colistin (−) [8]: >256 µg/mL
- reduction of adherent biofilm [9]: superior in reducing adherent biofilms
- MIC, colistin (+) ([10]; E. coli O157:H7, with sub-inhibitory colistin 0.0625 μg/ml): 0.0625 µg/mL
- MIC, colistin (−) ([10]; E. coli O157:H7, without colistin): 64 µg/mL
- reduction of adherent biofilm [11]: superior in reducing adherent biofilms
- DNA synthesis inhibition [12, 24]: clear dose-dependent disruption
- cell wall synthesis inhibition [12, 24]: clear dose-dependent disruption
- protein synthesis inhibition [12, 24]: clear dose-dependent disruption
- effect on RNA synthesis ([12]; up to 4×MIC): no significant effect
- effect on lipid synthesis ([12]; up to 4×MIC): no significant effect
- clinically achievable blood concentration [13]: 2.37 µg/mL
- level of IL-6 [14]: significantly reduced
- level of TNF-α [14]: significantly reduced
- level of IL-1β ([14]; data not shown): significantly reduced
- level of MCP-1 ([14]; data not shown): significantly reduced
- effect on number of planktonic persister cells [15]: complete eradication of planktonic persister cells
- MIC50 ([16]; first column per drug): 0.062 µg/mL
- MIC50 ([16]; second column per drug): 0.062 µg/mL
- IC50 of bacterial translation [17]: 0.038 µg/mL
- MIC50 ([18]; first column per drug): 0.125 µg/mL
- MIC50 ([18]; second column per drug): 0.125 µg/mL
- MIC, colistin (−) [19]: 128 µg/mL
- bacterial load in MRSA skin lesions [20]: significantly reduced the bacterial load
- relationship with conventional antimicrobials in vitro [21]: synergistic relationship
- MIC, colistin (+) ([22]; with sub-inhibitory colistin 0.25 μg/ml): 0.0312 µg/mL
- MIC, colistin (−) ([22]; without colistin): 256 µg/mL
- MIC, colistin (+) ([23]; with sub-inhibitory colistin 0.125 μg/ml): 0.125 µg/mL
- MIC, colistin (−) ([23]; without colistin): 256 µg/mL
